Source: patent US20020147217A1, “The treatment of sexual dysfunction with enantiomers” (R.T. Alamo Ventures I, L.L.C., priority 2001, published 2002)
Counter-ions that a name gives are not always drawn. Like-named read-outs stand apart in the source and are kept apart here.

Tests used:
[1] = target: T1, PDE6 partially purified from bovine retinal rod (Bos taurus, UniProt P11541+P23439); test: PDE6 inhibition assay, Viagra versus racemic flosequinan (Example 1); type: biochemical
T1 construct: from tissue; host or cells: bovine retinal rod
T1 sequence (P11541 2-856 limits assumed): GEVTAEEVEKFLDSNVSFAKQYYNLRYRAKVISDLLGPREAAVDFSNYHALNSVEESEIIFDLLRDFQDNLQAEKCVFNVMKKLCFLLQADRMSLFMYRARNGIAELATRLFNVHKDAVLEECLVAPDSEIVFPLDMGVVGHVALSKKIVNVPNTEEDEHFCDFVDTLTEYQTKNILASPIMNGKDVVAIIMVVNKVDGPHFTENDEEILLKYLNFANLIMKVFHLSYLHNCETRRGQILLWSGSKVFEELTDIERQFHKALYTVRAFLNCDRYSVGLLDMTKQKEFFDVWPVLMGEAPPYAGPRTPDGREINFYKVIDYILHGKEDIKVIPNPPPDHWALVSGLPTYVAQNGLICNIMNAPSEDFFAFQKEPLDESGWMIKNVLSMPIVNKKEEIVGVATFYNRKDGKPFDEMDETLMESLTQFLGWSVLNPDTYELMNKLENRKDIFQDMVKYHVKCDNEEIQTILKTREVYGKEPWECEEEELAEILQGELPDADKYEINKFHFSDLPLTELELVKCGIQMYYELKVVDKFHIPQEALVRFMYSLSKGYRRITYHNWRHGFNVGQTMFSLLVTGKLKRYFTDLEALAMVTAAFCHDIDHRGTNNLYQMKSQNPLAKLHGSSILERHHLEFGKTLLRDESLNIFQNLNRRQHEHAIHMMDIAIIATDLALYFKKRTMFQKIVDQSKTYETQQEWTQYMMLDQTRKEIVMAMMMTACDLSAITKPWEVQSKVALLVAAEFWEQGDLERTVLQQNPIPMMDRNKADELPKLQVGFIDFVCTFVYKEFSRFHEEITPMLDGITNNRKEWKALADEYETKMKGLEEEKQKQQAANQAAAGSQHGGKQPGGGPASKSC
T1 sequence (P23439 2-850 limits assumed): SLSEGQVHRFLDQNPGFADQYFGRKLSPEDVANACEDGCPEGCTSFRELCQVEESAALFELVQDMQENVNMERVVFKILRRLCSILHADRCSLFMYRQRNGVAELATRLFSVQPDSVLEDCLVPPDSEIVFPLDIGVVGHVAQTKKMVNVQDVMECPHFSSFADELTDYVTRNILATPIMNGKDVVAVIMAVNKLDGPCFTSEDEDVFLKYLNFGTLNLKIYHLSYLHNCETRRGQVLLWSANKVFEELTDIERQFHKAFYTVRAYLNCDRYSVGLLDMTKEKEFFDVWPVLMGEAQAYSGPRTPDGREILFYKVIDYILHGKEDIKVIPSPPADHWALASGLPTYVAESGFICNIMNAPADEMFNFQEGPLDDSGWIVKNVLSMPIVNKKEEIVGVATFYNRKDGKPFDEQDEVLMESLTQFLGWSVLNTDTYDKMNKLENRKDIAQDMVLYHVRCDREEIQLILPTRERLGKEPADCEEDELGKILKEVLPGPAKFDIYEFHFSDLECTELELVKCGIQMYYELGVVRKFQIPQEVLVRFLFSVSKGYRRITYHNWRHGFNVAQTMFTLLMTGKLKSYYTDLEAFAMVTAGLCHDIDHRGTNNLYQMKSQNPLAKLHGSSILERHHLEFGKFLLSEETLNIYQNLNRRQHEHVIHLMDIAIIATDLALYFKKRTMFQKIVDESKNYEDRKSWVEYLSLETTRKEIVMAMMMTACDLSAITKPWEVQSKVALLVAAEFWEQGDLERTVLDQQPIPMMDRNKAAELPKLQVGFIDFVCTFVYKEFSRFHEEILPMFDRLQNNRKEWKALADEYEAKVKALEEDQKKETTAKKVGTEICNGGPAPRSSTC
Method: PDE6 partially purified from bovine retinal rod and activated by trypsin was used. In four separate reactions, Viagra at molar concentrations of 0.3 μM, 1.0 μM, and 3.0 μM, and a 100 μM racemic mixture of flosequinan were incubated with 0.2 μg/ml active PDE6 and 100 μM cGMP containing 0.1 μM [^3H]cGMP in Tris buffer pH 7.5 for 20 minutes at 30° C. Each reaction was terminated by raising the temperature to 100° C. for 2 minutes. The resulting GMP was converted to guanosine by addition of 10 mg/ml snake venom nucleotidase and further incubated at 30° C. for 10 minutes. Unhydrolyzed cGMP was bound to AGI-X2 resin, and [^3H]guanosine remaining in the aqueous phase was quantitated by scintillation counting.

[2] = target: T2, PDE1 partially purified from bovine heart (Bos taurus, UniProt P14100); test: PDE1 enzyme inhibition assay (Example 3); type: biochemical
T2 construct: PDE1 partially purified from bovine heart was used; from tissue; host or cells: bovine heart
T2 sequence (P14100 1-514 isoform P14100-2): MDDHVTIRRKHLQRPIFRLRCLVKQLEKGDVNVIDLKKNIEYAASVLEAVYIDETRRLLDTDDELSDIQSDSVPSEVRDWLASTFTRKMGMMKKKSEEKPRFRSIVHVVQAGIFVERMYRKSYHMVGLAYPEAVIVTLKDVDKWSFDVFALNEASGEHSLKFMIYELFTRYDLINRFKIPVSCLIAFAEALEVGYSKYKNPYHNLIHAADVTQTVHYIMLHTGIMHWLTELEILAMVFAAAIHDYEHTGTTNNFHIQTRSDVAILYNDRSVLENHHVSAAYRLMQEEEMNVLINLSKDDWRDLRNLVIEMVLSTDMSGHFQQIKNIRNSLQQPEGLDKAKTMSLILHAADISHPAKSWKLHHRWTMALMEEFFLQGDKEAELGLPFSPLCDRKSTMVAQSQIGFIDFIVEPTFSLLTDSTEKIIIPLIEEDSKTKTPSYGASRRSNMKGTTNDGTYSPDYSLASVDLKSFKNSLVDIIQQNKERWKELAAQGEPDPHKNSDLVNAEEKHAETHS
Method: (§1) In this example, a racemic mixture of flosequinan and the (+) and (−) enantiomers of flosequinan were subjected to biochemical enzyme assays to determine their respective percent inhibition of a variety of phosphodiesterases (PDE1-PDE6). The reaction conditions for each PDE assay were as follows.
(§2) PDE1: PDE1 partially purified from bovine heart was used. A racemic mixture of flosequinan, and each enantiomer of flosequinan, all at a molar concentration of 100 μM, were independently incubated with 13 μg PDE1 enzyme, 1.0 μM [^3H]cAMP and CaCl2/calmodulin in Tris buffer pH 7.5 for 20 minutes at 30° C. The reaction was terminated by boiling for 2 minutes, and the resulting AMP was converted to adenosine by addition of 10 mg/ml snake venom nucleotidase and further incubation at 30° C. for 10 minutes. Unhydrolyzed cAMP was bound to AGI-X2 resin, and the remaining [^3H]adenosine in the aqueous phase was quantitated by scintillation counting.

[3] = target: T3, PDE2 partially purified from human platelets (Homo sapiens, UniProt O00408); test: PDE2 enzyme inhibition assay (Example 3); type: biochemical; conditions: for % Inhibition of PDE2: 100 μM
T3 construct: PDE2 partially purified from human platelets was used; from tissue; host or cells: human platelets
T3 sequence (O00408 whole entry): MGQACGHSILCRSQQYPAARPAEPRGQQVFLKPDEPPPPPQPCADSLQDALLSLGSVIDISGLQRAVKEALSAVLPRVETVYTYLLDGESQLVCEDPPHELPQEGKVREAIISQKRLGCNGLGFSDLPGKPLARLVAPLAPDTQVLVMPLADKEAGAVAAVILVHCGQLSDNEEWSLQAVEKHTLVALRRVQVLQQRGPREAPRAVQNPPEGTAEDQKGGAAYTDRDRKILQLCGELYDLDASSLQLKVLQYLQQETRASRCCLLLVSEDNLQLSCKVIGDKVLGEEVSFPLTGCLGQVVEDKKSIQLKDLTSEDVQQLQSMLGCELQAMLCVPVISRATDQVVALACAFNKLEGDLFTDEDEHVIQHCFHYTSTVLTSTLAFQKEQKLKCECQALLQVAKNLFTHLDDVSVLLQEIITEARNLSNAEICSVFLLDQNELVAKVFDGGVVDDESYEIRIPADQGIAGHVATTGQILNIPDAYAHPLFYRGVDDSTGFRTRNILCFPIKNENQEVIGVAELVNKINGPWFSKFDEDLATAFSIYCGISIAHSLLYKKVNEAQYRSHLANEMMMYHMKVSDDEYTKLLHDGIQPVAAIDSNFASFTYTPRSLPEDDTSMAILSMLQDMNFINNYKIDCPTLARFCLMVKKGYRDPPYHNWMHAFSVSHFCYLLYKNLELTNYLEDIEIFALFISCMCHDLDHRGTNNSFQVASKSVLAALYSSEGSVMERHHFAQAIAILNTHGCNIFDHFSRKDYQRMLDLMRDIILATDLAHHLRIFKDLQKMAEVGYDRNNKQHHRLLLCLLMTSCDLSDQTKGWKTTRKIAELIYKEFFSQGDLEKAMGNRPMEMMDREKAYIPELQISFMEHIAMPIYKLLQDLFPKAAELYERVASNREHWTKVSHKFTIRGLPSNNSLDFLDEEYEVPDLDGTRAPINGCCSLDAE
Method: as §1
as §2, with “PDE2: PDE2” for “PDE1: PDE1”, “human platelets” for “bovine heart”, “23” for “13”, “PDE2” for “PDE1”, “25 μM cAMP containing 0.05” for “1.0”, “[^3H]cAMP” for “[^3H]cAMP and CaCl2/calmodulin”

[4] = target: T4, PDE3 partially purified from human platelets (Homo sapiens, UniProt Q14432); test: PDE3 enzyme inhibition assay (Example 3); type: biochemical
T4 construct: PDE3 partially purified from human platelets was used; from tissue; host or cells: human platelets
T4 sequence (Q14432 whole entry): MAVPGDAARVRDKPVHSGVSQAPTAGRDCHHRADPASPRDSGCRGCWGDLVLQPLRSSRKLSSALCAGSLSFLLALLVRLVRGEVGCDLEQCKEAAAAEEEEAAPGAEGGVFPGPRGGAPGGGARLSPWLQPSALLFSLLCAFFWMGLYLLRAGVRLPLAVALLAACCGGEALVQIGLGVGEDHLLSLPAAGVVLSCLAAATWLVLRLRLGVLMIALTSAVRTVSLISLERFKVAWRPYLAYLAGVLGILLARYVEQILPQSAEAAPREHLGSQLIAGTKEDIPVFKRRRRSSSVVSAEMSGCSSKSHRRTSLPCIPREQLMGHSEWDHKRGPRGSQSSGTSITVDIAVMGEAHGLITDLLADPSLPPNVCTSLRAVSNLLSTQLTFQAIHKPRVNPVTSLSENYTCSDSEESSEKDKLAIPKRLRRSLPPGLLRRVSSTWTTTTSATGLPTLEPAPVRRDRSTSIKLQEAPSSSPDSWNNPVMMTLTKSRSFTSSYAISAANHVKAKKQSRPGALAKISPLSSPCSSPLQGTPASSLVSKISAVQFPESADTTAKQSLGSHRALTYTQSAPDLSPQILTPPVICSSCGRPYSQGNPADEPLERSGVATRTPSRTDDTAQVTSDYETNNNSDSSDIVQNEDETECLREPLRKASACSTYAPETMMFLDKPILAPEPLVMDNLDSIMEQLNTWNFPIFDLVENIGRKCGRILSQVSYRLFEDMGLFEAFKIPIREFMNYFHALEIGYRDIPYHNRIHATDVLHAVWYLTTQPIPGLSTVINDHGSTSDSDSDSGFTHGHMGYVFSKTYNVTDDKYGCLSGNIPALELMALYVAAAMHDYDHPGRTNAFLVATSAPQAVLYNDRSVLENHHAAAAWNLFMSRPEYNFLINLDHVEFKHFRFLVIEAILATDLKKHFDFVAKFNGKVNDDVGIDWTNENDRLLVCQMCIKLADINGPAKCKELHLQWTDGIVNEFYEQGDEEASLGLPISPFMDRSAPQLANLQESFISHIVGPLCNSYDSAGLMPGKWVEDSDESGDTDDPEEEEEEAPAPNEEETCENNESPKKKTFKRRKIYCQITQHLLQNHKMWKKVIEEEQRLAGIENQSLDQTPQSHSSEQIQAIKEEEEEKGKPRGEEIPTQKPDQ
Method: as §1
as §2, with “PDE3: PDE3” for “PDE1: PDE1”, “human platelets” for “bovine heart”, “PDE3 enzyme and 1 μM cAMP containing 0.01” for “PDE1 enzyme, 1.0”, “[^3H]cAMP” for “[^3H]cAMP and CaCl2/calmodulin”

[5] = test system: PDE4 partially purified from human U-937 pronocytic cells; test: PDE4 enzyme inhibition assay (Example 3); type: biochemical; conditions: 100 μM
Method: as §1
as §2, with “PDE4: PDE4” for “PDE1: PDE1”, “human U-937 pronocytic cells” for “bovine heart”, “20” for “13”, “PDE4 enzyme and 1 μM cAMP containing 0.01” for “PDE1 enzyme, 1.0”, “[^3H]cAMP” for “[^3H]cAMP and CaCl2/calmodulin”

[6] = target: T5, PDE5 partially purified from human platelets (Homo sapiens, UniProt O76074); test: PDE5 enzyme inhibition assay (Example 3); type: biochemical; conditions: for % Inhibition of PDE5: 100 μM
T5 construct: PDE5 partially purified from human platelets was used; from tissue; host or cells: human platelets
Method: as §1
PDE5: PDE5 partially purified from human platelets was used. A racemic mixture of flosequinan, and each enantiomer of flosequinan, all at a molar concentration of 100 μM, were independently incubated with 120 μg PDE5 enzyme and 1 μM cGMP containing 0.01 μM [^3H]cGMP in Tris buffer pH 7.5 for 20 minutes at 30° C. The reaction was terminated by boiling for 2 minutes, and the resulting GMP was converted to guanosine by addition of 10 mg/ml snake venom nucleotidase and further incubation at 30° C. for 10 minutes. Unhydrolyzed cGMP was bound to AGI-X2 resin, and the remaining [^3H]guanosine in the aqueous phase was quantitated by scintillation counting.

[7] = target: T1, PDE6 partially purified from bovine retinal rod; test: PDE6 enzyme inhibition assay (Example 3); type: biochemical; conditions: for % Inhibition of PDE6: 100 μM
Method: as §1
PDE6: PDE6 partially purified from bovine retinal rod and activated by trypsin was used. A racemic mixture of flosequinan, and each enantiomer of flosequinan, all at a molar concentration of 100 μM, were independently incubated with 0.2 μg/ml active PDE6 and 100 μM cGMP containing 0.1 μM [^3H]cGMP in Tris buffer pH 7.5 for 20 minutes at 30° C. Each reaction was terminated by boiling for 2 minutes. The resulting GMP was converted to guanosine by addition of 10 mg/ml snake venom nucleotidase, and further incubated at 30° C. for 10 minutes. Unhydrolyzed cGMP was bound to AGI-X2 resin, and [^3H]guanosine remaining in the aqueous phase was quantitated by scintillation counting.

[8] = in vivo, po
[9] = Plasma levels following oral administration

Cn1cc([S+](C)[O-])c(=O)c2ccc(F)cc21 (racemic) [Flosequinan, 7-fluoro-1-methyl-3-(methylsulphinyl)-4(1H)-quinolone, reference compound]
inhibition at 100 µM ([1]; 100 μM compound): 36%
IC50 ([1]; read-out: Concentration required for around 50% inhibition of PDE6): > 100 µM
Times more compound on a molar basis than Viagra needed for around 50% PDE6 inhibition ([1]; versus Viagra 0.3 μM): more than 300 times
inhibition at 100 µM [2]: 31%
inhibition at 100 µM [3]: 18%
inhibition at 100 µM ([4]; 100 μM): 26%
% Inhibition of PDE4 [5]: 24%
inhibition at 100 µM [6]: 11%
inhibition at 100 µM [7]: 21%

Cn1cc([S+](C)[O-])c(=O)c2ccc(F)cc21 (single isomer, unassigned; (-)) [(−)-flosequinan]
% Inhibition of PDE1 ([2]; 100 μM): 11%
% Inhibition of PDE2 [3]: 13%
% Inhibition of PDE3 ([4]; 100 μM): 5%
% Inhibition of PDE4 [5]: 1%
% Inhibition of PDE5 [6]: 10%
% Inhibition of PDE6 [7]: 21%

Cn1cc([S@@+](C)[O-])c(=O)c2ccc(F)cc21 [(+)-flosequinan]
% Inhibition of PDE1 ([2]; 100 μM): 28%
PDE1 inhibitory activity compared with the (−) enantiomer ([2]; 100 μM): more PDE1 and PDE3 inhibitory activity
% Inhibition of PDE2 [3]: 18%
% Inhibition of PDE3 ([4]; 100 μM): 32%
PDE3 inhibitory activity compared with the (−) enantiomer ([4]; 100 μM): more PDE1 and PDE3 inhibitory activity
Increase in PDE3 inhibition compared to the (−) enantiomer ([4]; same molar concentration): eight-fold
PDE3 inhibition compared with racemic mixture of flosequinan ([4]; same molar concentration): greater inhibition of PDE3 than a racemic mixture of flosequinan
% Inhibition of PDE4 [5]: 6%
% Inhibition of PDE5 [6]: 17%
% Inhibition of PDE6 [7]: 22%
Time of peak plasma concentration [8]: 1 to 2 h

CCCc1nn(C)c2c(=O)[nH]c(-c3cc(S(=O)(=O)N4CCN(C)CC4)ccc3OCC)nc12 [Viagra, Sildenafil citrate]
inhibition at 0.3 µM ([1]; read-out: % Inhibition of PDE6, 0.3 μM compound): ~50%
inhibition at 1 µM ([1]; read-out: % Inhibition of PDE6, 1.0 μM compound): 62%
inhibition at 3 µM ([1]; read-out: % Inhibition of PDE6, 3.0 μM compound): 87%

CSc1cn(C)c2cc(F)ccc2c1=O [metabolite]
Time of peak plasma concentration [9]: about seven
